From patent US5827837A, “Polyanion anti-inflammatory agents” (priority 1996, dated 1998)

What was measured:
[1] = system: L-selectin (L-COS); assay: LS 180 cell adhesion to COS cells transfected with full length L-selectin (L-COS); type: cell-based; details: 0.5 mM, 2 experiments
Experimental: (§1) The effect of inositols on selectin-dependent cell adhesion was assessed using several in vitro assay systems. In the first, a colon cancer cell line, LS 180, was chosen because it binds to all three selecting.
(§2) COS-1 cells were transfected as described (Seed, B., et al., Proc. Natl. Acad. Sci., U.S.A., 84:3365, 1987; Aruffo, A., Current Protocols In Molecular Biology, eds. supra, 1992) with pCDM7/pCDM8 expression vectors containing the full-length E-, P- and L-selectin cDNA. Transfected COS-1 cells were seeded on gelatin coated coverslips.

[2] = system: PMN recovered in broncho-alveolar lavage fluid; assay: Lung inflammation by intratracheal instillation of endotoxin, PMN in broncho-alveolar lavage fluid; type: in vivo; details: rat, i.v. at 2 and 4 hours, 40 μmol/kg total, at 6 hours, 2 experiments
Excerpt: In the first model, mice were given intraperitoneal (i.p.) injections of 3% thioglycollate broth (FIG. 4, left panel) which results in an accumulation of PMN, the early phase of which is thought to depend in large part on L-(Lewinsohn, D. M., et al., J. Immunol., 138:4313, 1987; Watson, S. R., et al., Nature, 349:164, 1991), and P-selectin (Mulligan, M. S., et al., J. Clin. Invest., 90:1600, 1992). […] In a rat model of lung inflammation involving intratracheal instillation of endotoxin (Ulich, T. R., et al., Am. J. Pathol, 138:1485, 1991), InsP6 (i.v. injections at 2 and 4 hours, 40 μmol/kg total) reduced the number of PMN recovered in broncho-alveolar lavage fluid at 6 hours (59±8% inhibition, 2 experiments). The number of peripheral blood PMN was not modified by InsP6 treatment.

[3] = system: E-selectin (E-COS); assay: PMN adhesion to E-selectin transfected COS cells (E-COS); type: cell-based, human; details: 0.5 mM
Experimental: as §2

[4] = system: Human umbilical vein endothelial cells (HUVEC); assay: PMN adhesion to TNF-activated endothelial monolayers (HUVEC); type: cell-based; details: InsP6 0.5 mM
Experimental: Human umbilical vein endothelial cells (HUVEC, Clonetics Corp., San Diego, Calif.) were grown to confluence with 2.2 cm diameter circles made on glass slides with a grease pencil as previously described (Spertini, O., et al., J. Immunol., 147:2565, 1991), and activated for 6-8 hours at […] with 200 U/ml of human recombinant TNFα (Biogen Res. Corp., Cambridge, Mass.). Human PMN (2×10^6) were allowed to adhere to these endothelial monolayers for 30 min at 4° C. under static (stationary platform; upper panel) and non-static (rotating platform, 64 r.p.m.; lower panel) conditions. To determine adhesion blocking activity, PMN were incubated in 5% FBS in RPMI 1640 alone or containing inositol (0.5 mM), InsP6 (0.5 mM), or anti-L-selectin monoclonal antibody LAM 1.3 (10 μg/ml), for 30 min or ice prior to their addition to activated endothelial monolayers. In some experimental wells, endothelial monolayers were incubated with anti E-selectin monoclonal antibody, H18/7, for 30 min prior to addition of PMN. After washing to remove unbound PMN, cultures were fixed in PBS containing 2.5% glutaraldehyde and adherent PMN were counted microscopically. The data represent the mean ±s.e.m. of three separate experiments. Unblocked PMN adhesion to activated endothelial monolayers under static and non-static conditions ranged from 1800 to 2400 cells/mm^2. […]

[5] = system: hemoglobin; details: in vitro; cited from earlier work
[6] = Ca^2+; read-out: Kd, calcium binding; cited from earlier work
[7] = biological target: T1, E-selectin-lg fusion protein (Homo sapiens, UniProt P16581); assay: LS 180 colon cancer cell adhesion to immobilized E-selectin-Ig; type: cell-based
T1 construct: Each selectin-lg contains the lectin domain, epidermal growth factor domain, and one (L-selectin-lg), two (P-selectin-lg) or six (E-selectin-lg) complement regulatory repeats; made in house
T1 sequence (P16581 with tags, fused parts or gaps limits assumed): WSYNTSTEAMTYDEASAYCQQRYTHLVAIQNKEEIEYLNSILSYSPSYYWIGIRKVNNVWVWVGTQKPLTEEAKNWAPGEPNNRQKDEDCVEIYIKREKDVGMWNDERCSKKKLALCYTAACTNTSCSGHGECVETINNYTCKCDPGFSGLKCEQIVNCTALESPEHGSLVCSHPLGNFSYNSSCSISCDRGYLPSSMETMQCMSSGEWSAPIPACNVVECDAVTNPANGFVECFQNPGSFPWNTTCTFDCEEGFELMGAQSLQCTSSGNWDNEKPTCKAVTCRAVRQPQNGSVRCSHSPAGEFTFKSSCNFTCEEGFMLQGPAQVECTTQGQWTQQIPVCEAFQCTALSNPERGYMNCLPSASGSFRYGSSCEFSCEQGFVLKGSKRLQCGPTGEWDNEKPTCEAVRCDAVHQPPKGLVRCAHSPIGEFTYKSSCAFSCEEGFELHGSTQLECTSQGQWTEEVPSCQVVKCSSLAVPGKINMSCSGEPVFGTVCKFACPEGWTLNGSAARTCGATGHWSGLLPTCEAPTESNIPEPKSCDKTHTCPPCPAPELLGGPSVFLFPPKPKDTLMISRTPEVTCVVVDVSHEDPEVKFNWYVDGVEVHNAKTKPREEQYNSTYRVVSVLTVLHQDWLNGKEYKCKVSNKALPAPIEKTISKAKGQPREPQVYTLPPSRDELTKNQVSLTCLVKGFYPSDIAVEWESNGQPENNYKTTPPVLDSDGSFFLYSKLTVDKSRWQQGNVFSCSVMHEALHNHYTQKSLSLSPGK
Experimental: Cell adhesion assays on immobilized selectin-lg were performed essentially as described (Nelson, R. M., et al., J. Clin. Invest., 91:1157, 1993; Nelson, R. M., et al., Symposia on Quant. Biol., 57:271, 1992). Briefly, Nunclon Terasaki Microwell plates were coated overnight with 5 μl/well of a 5 μg/ml solution of protein A (Chemicon, Temecula, Calif.) in 50 mM carbonate buffer, pH 9.5. Protein-A-coated plates were washed with Dulbecco's phosphate buffered saline (PBS), incubated for 1 hour with L-, P-, or E-selectin-lg fusion proteins in PBS (5-20 μg/ml), washed again, and blocked with PBS containing 1% human serum albumin (HSA). […] After washing to remove unbound cells, adherent cells were fixed with glutaraldehyde (2.5% in PBS) and counted. Symbols and error bars represent mean number of adherent cells/mm^2 ±s.e.m., counted in quadruplicate wells in a single experiment representative of three. No LS 180 cell adhesion was detected on plates coated with protein A alone, or on plates coated with protein A-captured CD8-lg fusion protein.
LS 180 cells (ATCC, Rockville, Md.) were added to cell culture wells containing protein A-captured selectin-lg fusion proteins and incubated for 30 min at 4° C. to allow adhesion. The plates were washed to remove unbound cells and adherent cells were counted microscopically. […]

[8] = system: E-selectin (E-COS); assay: LS 180 cell adhesion to COS cells transfected with full length E-selectin (E-COS); type: cell-based; details: 0.5 mM
Experimental: as §1, §2

[9] = system: neutrophils; details: cited from earlier work
[10] = mice and rats, high-dose (^18 600 μmol/kg), rate 60 μmol/kg/min or higher; cited from earlier work
[11] = Toxic effects after injection, applicant's studies; type: in vivo

## O=P(O)(O)O[C@H]1[C@H](OP(=O)(O)O)[C@@H](OP(=O)(O)O)[C@H](OP(=O)(O)O)[C@@H](OP(=O)(O)O)[C@H]1OP(=O)(O)O [InsP6, myo-inositol hexakisphosphate]
[1]
  inhibition of LS 180 cell adhesion to L-COS: 81±13%
[2]
  inhibition of PMN recovered in broncho-alveolar lavage fluid: 59±8%
[3]
  PMN adhesion to E-COS: not to E-COS
[4]; non-static conditions (rotation-induced shear stress, 64 r.p.m.)
  PMN adhesion to TNF-activated endothelial cells, non-static: blocked the adhesion of PMN
[4]; static conditions
  PMN adhesion to TNF-activated endothelial cells, static: little or no effect
[5]
  allosteric regulation of mammalian hemoglobin: effective allosteric regulator of mammalian hemoglobin in vitro
[6]
  Kd: ~5 µM
[7]
  LS 180 adhesion to E-selectin-Ig: but not with E-selectin-lg
[8]
  inhibition of LS 180 cell adhesion to E-COS: < 5%
[9]
  effect on neutrophil responses to activating stimuli: enhance their responses to activating stimuli
[10]
  acute toxic effects, i.v. infusion: acute toxic effects
[11]; 40 μmol/kg, decreased rate of infusion
  toxic effects at decreased infusion rate and lower doses: These effects were avoided
[11]; rapid i.v. (5-10 sec), >50 μmol/kg
  duration of transient toxic effects: 1 to 3 min
[11]; rapid i.v. (5-10 sec), concentrated solutions >50 μmol/kg
  toxic effects upon rapid i.v. injection: some transient (duration 1-3 min) toxic effects (unsteady gate, spasms)
[11]; repeated multiple times in the same animal, 40 μmol/kg
  harmful effect on repeated protocol: without apparent harmful effect
[11]; s.c., doses up to 200 μmol/kg
  toxic effects, subcutaneous: no toxic effects were observed
